Structures are written as SMILES. Structures can show the parent of a compound that is named as a salt.

This assay deals with T1, c-Raf kinase (Lck-activated c-Raf, Raf-1) (Homo sapiens, UniProt P04049).
T1 construct: GST-c-Raf (from amino acid 302 to amino acid 648); made in house; host or cells: Sf9 insect cells (baculovirus; co-infection with full-length Lck)
The assay can be described thus: c-Raf (Raf-1) biochemical assay (radioactive filtermat assay, MEK-1 substrate). The following applies: at 1 micromolar compound; 5 μM ATP, 32° C., 1 hour. How it is done:
Biological Tests c-Raf (Raf-1) Biochemical Assay Purification of Proteins Used in the Assay
The c-Raf biochemical assay was performed with a c-Raf enzyme that was activated (phosphorylated) by Lck kinase. Lck-activated c-Raf (Lck/c-Raf) was produced in Sf9 insect cells by co-infecting cells with baculoviruses expressing, under the control of the polyhedrin promoter, GST-c-Raf (from amino acid 302 to amino acid 648) and Lck (full-length). Both baculoviruses were used at the multiplicity of infection of 2.5 and the cells were harvested 48 hours post infection.
MEK-1 protein was produced in Sf9 insect cells by infecting cells with the baculovirus expressing GST-MEK-1 (full-length) fusion protein at the multiplicity of infection of 5 and harvesting the cells 48 hours post infection. Similar purification procedure was used for GST-c-Raf 302-648 and GST-MEK-1.
Transfected cells were suspended at 100 mg of wet cell biomass per mL in a buffer containing 10 mM sodium phosphate, 140 mM sodium chloride pH 7.3, 0.5% Triton X-100 and the protease inhibitor cocktail. The cells were disrupted with Polytron homogenizer and centrifuged 30,000 g for 30 minutes. The 30,000 g supernatant was applied onto GSH-Sepharose. The resin was washed with a buffer containing 50 mM Tris, pH 8.0, 150 mM NaCl and 0.01% Triton X-100. The GST-tagged proteins were eluted with a solution containing 100 mM Glutathione, 50 mM Tris, pH 8.0, 150 mM NaCl and 0.01% Triton X-100. The purified proteins were dialyzed into a buffer containing 20 mM Tris, pH 7.5, 150 mM NaCl and 20% Glycerol.
Biochemical Assay Protocol and Results
The compounds were serially diluted in DMSO using three-fold dilutions to stock concentrations ranging typically from 50 μM to 20 nM (final concentrations in the assay range from 1 μM to 0.4 nM). The c-Raf biochemical assay was performed as a radioactive filtermat assay in 96-well Costar polypropylene plates (Costar 3365). The plates were loaded with 75 μL solution containing 50 mM HEPES pH 7.5, 70 mM NaCl, 80 ng of Lck/c-Raf and 1 μg MEK-1. Subsequently, 2 μL of the serially diluted individual compounds were added to the reaction, prior to the addition of ATP. The reaction was initiated with 25 μL ATP solution containing 5 μM ATP and 0.3 μCi [33P]-ATP. The plates were sealed and incubated at 32° C. for 1 hour. The reaction was quenched with the addition of 50 μl of 4% Phosphoric Acid and harvested onto P30 filtermats (PerkinElmer) using a Wallac Tomtec Harvester. Filtermats were washed with 1% Phosphoric Acid first and deinonized H2O second. The filters were dried in a microwave, soaked in scintillation fluid and read in a Wallac 1205 Betaplate Counter (Wallac Inc., Atlanta, Ga., U.S.A.). The results were expressed as percent inhibition. % Inhibition=[[…]]×100 where • Tib=(counts per minute with inhibitor)−(background) • Ti=(counts per minute without inhibitor)−(background)

T1 sequence (P04049 302-648): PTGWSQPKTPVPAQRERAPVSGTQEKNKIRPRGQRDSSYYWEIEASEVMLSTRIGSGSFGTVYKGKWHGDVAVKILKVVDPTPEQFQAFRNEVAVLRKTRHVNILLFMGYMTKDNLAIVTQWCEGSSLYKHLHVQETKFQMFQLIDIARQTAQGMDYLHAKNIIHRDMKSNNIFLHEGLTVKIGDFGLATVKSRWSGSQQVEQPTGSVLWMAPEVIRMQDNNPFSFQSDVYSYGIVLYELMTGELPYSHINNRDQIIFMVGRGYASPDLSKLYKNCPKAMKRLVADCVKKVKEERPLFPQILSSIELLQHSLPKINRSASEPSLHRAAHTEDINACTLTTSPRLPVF

Broadly, the inhibition is the change of the read-out against control, counted positive when it falls. Regarding `CNC(=O)c1cc(Oc2ccc(NC(=O)Nc3ccc4nc(C)oc4c3)cc2)ccn1` [Example 6], the inhibition at 1 µM was more than 40%.
To `Cc1nc2cc(NC(=O)Nc3ccc(Oc4ccnc(C(N)=O)c4)cc3)ccc2s1` [Example 91] belongs more than 40%; to `CCN(CC)CCn1ncc2cc(NC(=O)Nc3ccc(Oc4ccnc(C(=O)NC)c4)cc3F)ccc21` [Example 45], more than 40%; to `CCN(CC)CCn1ccc2cc(NC(=O)Nc3ccc(Oc4ccnc(C(=O)NC)c4)cc3F)ccc21` [Example 44], more than 40%.
In the case of `CNC(=O)c1cc(Oc2ccc(NC(=O)Nc3nc4ccc(Cl)cc4s3)cc2)ccn1` [Example 11], the inhibition at 1 µM is more than 40%.
To `Cn1ncc2cc(NC(=O)Nc3cccc(Oc4ccnc(C(=O)NCCN5CCCCC5)c4)c3)ccc21` [Example 148, 4-[3-({[(1-methyl-1H-indazol-5-yl)amino]carbonyl}amino)phenoxy]-N-(2-piperidin-1-ylethyl)pyridine-2-carboxamide] belongs more than 40%; to `CNC(=O)c1cc(Oc2ccc(NC(=O)Nc3ccc4cnn(C)c4c3)cc2)ccn1` [Example 24], more than 40%.
To `CNC(=O)c1cc(Oc2ccc(NC(=O)Nc3ccc4[nH]c(C(F)(F)F)nc4c3)cc2)ccn1` [Example 28] belongs more than 40%; to `O=C(Nc1ccc(Oc2ccnc(C(=O)NCCN3CCCC3)c2)cc1)Nc1ccc2c(c1)OCCO2` [Example 159], more than 40%.
To `CNC(=O)c1cc(Oc2ccc(NC(=O)Nc3nc4ccc(OC(F)(F)F)cc4s3)cc2)ccn1` [Example 12] belongs more than 40%.
Consider `Cn1ncc2cc(NC(=O)Nc3ccc(Oc4ccnc(C(=O)NCCN5CCNCC5)c4)cc3)ccc21` [Example 157], for which the inhibition at 1 µM is more than 40%.
For the molecule `COC(=O)c1cncc(Oc2ccc(NC(=O)Nc3ccc4c(c3)C(F)(F)OC(F)(F)O4)cc2)c1` [Example 122], the inhibition at 1 µM was more than 40%.
Consider `CNC(=O)c1cc(Oc2ccc(NC(=O)Nc3cccc4c3OC(F)(F)C(F)(F)O4)cc2)ccn1` [Example 132], for which the inhibition at 1 µM was more than 40%.
To `CNC(=O)c1cc(Oc2ccc(NC(=O)Nc3ccc4sc(C)nc4c3)c(C(F)(F)F)c2)ccn1` [Example 65] belongs more than 40%.
To `Cn1ncc2cc(NC(=O)Nc3ccc(Oc4ccnc(C(=O)NCCN5CCCCC5)c4)cc3)ccc21` [Example 161] belongs more than 40%.
To `CNC(=O)c1cc(Oc2cccc(NC(=O)Nc3ccc4[nH]ncc4c3)c2)ccn1` [Example 108, 4-(3-{[(1H-indazol-5-ylamino)carbonyl]amino}phenoxy)-N-methylpyridine-2-carboxamide dihydrochloride] belongs more than 40%.
In the case of `Cn1ncc2cc(NC(=O)Nc3ccc(Oc4ccnc(C(=O)NCCN5CCCC5)c4)cc3)ccc21` [Example 156], the inhibition at 1 µM is more than 40%.
Take `O=C(Nc1ccc(Oc2ccnc(C(=O)Nc3ccccn3)c2)cc1)Nc1ccc2c(c1)C(F)(F)OC(F)(F)O2` [Example 155]: the inhibition at 1 µM was more than 40%.
To `CNC(=O)c1cc(Oc2ccc(NC(=O)Nc3ccc4c(c3)OCO4)cc2)ccn1` [Example 135] belongs more than 40%; to `Cn1ncc2cc(NC(=O)Nc3ccc(Oc4ccnc(C(=O)NC5CCC5)c4)cc3)ccc21` [Example 163], more than 40%.
To `COCCNC(=O)c1cc(Oc2ccc(NC(=O)Nc3ccc4c(cnn4C)c3)c(F)c2)ccn1` [Example 99] belongs more than 40%; to `CNC(=O)c1cc(Oc2cccc(NC(=O)Nc3ccc4[nH]nnc4c3)c2)ccn1` [Example 37], more than 40%; to `COC(=O)c1cc(Oc2cccc(NC(=O)Nc3ccc4c(c3)C(F)(F)OC(F)(F)O4)c2)ccn1` [Example 105, Methyl 4-[3-({[(2,2,4,4-tetrafluoro-4H-1,3-benzodioxin-6-yl)amino]-carbonyl}amino)phenoxy]pyridine-2-carboxylate], more than 40%.
To `CCn1c(C)nc2cc(NC(=O)Nc3ccc(Oc4ccnc(C(=O)NC)c4)cc3)ccc21` [Example 29] belongs more than 40%; to `COC(=O)c1cc(Oc2ccc(NC(=O)Nc3ccc4c(cnn4C)c3)cc2)ccn1` [Example 98], more than 40%; to `CNC(=O)c1cc(Oc2ccc(NC(=O)Nc3ccc4c(c3)CCN4S(C)(=O)=O)cc2)ccn1` [Example 31], more than 40%.
For the molecule `O=C(Nc1cccc(Oc2ccnc(C(=O)Nc3cccnc3)c2)c1)Nc1ccc2c(c1)C(F)(F)OC(F)(F)O2` [Example 169], the inhibition at 1 µM was more than 40%.
To `CNC(=O)c1cc(Oc2ccc(NC(=O)Nc3cccc4c3CCC4)cc2)ccn1` [Example 7] belongs more than 40%; to `CNC(=O)c1cc(COc2cccc(NC(=O)Nc3ccc4c(cnn4C)c3)c2)ccn1` [Example 89], more than 40%.
As to `CNC(=O)c1cc(Oc2ccc(NC(=O)Nc3ccc4[nH]c(C)cc4c3)cc2)ccn1` [Example 16], the inhibition at 1 µM was more than 40%.
To `CNC(=O)c1cc(Oc2ccc(NC(=O)Nc3nc4ccc(F)cc4s3)cc2)ccn1` [Example 13] belongs more than 40%.
As to `CNC(=O)c1cc(Oc2ccc(NC(=O)Nc3ccc4nn(C)cc4c3)cc2)ccn1` [Example 9], the inhibition at 1 µM is more than 40%.
With `Cn1ncc2cc(NC(=O)Nc3ccc(Oc4ccnc(C(=O)NCC5CC5)c4)cc3)ccc21` [Example 162], the inhibition at 1 µM was more than 40%.
Take `Cn1ncc2cc(NC(=O)Nc3cccc(Oc4ccnc(C(=O)NCCCn5ccnc5)c4)c3)ccc21` [Example 166]: the inhibition at 1 µM was more than 40%.
With `CNC(=O)c1cc(Oc2ccc(NC(=O)Nc3ccc4c(c3)CCC4=O)cc2)ccn1` [Example 22], the inhibition at 1 µM is more than 40%.
To `O=C(Nc1ccc(Oc2ccnc(C(=O)NCCN3CCCCC3)c2)cc1)Nc1ccc2c(c1)C(F)(F)OC(F)(F)O2` [Example 153] belongs more than 40%; to `O=C(Nc1ccc(Oc2ccnc(C(=O)NCCN3CCCC3)c2)cc1)Nc1ccc2c(c1)C(F)(F)OC(F)(F)O2` [Example 146, N-(2-pyrrolidin-1-ylethyl)4-[4-({[(2,2,4,4-tetrafluoro-4H-1,3-benzodioxin-6-yl)-amino]carbonyl}amino)phenoxy]pyridine-2-carboxamide], more than 40%.
To `CNC(=O)c1cc(Oc2ccc(NC(=O)Nc3nc4ccc([N+](=O)[O-])cc4s3)cc2)ccn1` [Example 102] belongs more than 40%; to `Cn1ncc2cc(NC(=O)Nc3ccc(Oc4ccnc(C(=O)NC5CC5)c4)cc3)ccc21` [Example 147, N-cyclopropyl-4-[4-({[(1-methyl-1H-indazol-5-yl)amino]-carbonyl}amino)phenoxy]pyridine-2-carboxamide], more than 40%.
To `CNC(=O)c1cc(Oc2ccc(NC(=O)Nc3nc4ccc(OC)cc4s3)cc2)ccn1` [Example 14] belongs more than 40%.
With `CC(=O)c1cc(Oc2ccc(NC(=O)Nc3ccc4c(cnn4C)c3)cc2)ccn1` [Example 3, N-{4-[(2-acetylpyridin-4-yl)oxy]phenyl}-N′-(1-methyl-1H-indazol-5-yl)urea], the inhibition at 1 µM is more than 40%.
With `O=C(Nc1ccc(Oc2ccnc(C(=O)NCCCn3ccnc3)c2)cc1)Nc1ccc2c(c1)C(F)(F)OC(F)(F)O2` [Example 145, N-[3-(1H-imidazol-1-yl)propyl]-4-[4-({[(2,2,4,4-tetrafluoro-4H-1,3-benzodioxin-6-yl)amino]carbonyl}amino)phenoxy]pyridine-2-carboxamide], the inhibition at 1 µM was more than 40%.
To `CNC(=O)c1cc(Oc2ccc(NC(=O)Nc3ccc4c(c3)OC(F)(F)O4)cc2)ccn1` [Example 20] belongs more than 40%; to `CNC(=O)c1cc(Oc2cccc(NC(=O)Nc3ccc4c(c3)C(F)(F)OC(F)(F)O4)c2)ccn1` [Example 117], more than 40%; to `O=C(Nc1cccc(Oc2ccnc(C(=O)NCCN3CCCC3)c2)c1)Nc1ccc2c(c1)C(F)(F)OC(F)(F)O2` [Example 168], more than 40%.
